# Data as given in patent publication US20030022812A1, “Treating pain by targeting hyperpolarization-activated, cyclic nucleotide-gated channels” (priority 2001, published 2003).
# Molecular target: T1, human HCN1 (Homo sapiens, UniProt O60741)
# T1 construct: expressed in transfected cells; host or cells: Xenopus laevis oocytes injected with cRNA transcribed from pGEMHE-human HCN1
# T1 sequence (O60741 1-890): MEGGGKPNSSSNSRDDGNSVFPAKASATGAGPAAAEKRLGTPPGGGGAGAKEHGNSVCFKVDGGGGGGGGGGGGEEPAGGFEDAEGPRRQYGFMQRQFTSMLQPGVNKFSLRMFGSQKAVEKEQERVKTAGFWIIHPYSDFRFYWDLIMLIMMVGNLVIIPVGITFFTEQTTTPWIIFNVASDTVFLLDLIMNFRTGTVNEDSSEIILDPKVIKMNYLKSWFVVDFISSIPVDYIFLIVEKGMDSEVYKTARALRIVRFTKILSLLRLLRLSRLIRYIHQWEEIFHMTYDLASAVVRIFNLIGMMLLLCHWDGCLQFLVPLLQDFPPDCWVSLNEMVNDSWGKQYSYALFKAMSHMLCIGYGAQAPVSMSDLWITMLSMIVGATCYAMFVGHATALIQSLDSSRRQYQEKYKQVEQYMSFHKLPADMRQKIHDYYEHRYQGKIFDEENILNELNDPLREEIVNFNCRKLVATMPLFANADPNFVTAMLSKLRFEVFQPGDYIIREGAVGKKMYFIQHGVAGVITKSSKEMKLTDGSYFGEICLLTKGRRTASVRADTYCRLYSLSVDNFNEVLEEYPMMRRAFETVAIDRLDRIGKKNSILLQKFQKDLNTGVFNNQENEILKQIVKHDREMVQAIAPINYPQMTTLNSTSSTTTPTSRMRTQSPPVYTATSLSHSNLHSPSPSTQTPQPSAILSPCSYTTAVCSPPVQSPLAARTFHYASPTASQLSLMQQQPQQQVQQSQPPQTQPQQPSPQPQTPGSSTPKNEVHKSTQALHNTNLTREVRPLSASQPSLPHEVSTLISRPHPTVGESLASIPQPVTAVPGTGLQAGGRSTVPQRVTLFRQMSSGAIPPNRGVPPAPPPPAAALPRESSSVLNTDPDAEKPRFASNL
# Test: Two-electrode voltage clamp of Xenopus oocytes injected with human HCN1 cRNA
# Format: cell-based
# Details: Cs+ 3 mM; for block of HCN1 currents: n=3
# Experimental: Xenopus laevis oocytes were prepared and injected using standard methods previously described and known in the art [Fraser et al. (1993). Electrophysiology: a practical approach. D. I. Wallis, IRL Press at Oxford University Press, Oxford: 65-86]. Ovarian lobes from adult female Xenopus laevis (Nasco, Fort Atkinson, Wis.) were teased apart, rinsed several times in nominally Ca-free saline containing: 82.5 mM NaCl, 2.5 mM KCl, 1 mM MgCl2, 5 mM HEPES, adjusted to pH 7.0 with NaOH (OR-2), and gently shaken in OR-2 containing 0.2% collagenase Type 1 (ICN Biomedicals, Aurora, Ohio) for 2-5 hours. When approximately 50% of the follicular layers were removed, Stage V and VI oocytes were selected and rinsed in media consisting of 75% OR-2 and 25% ND-96. The ND-96 contained: 100 mM NaCl, 2 mM KCl, 1 mM MgCl2, 1.8 mM CaCl2, 5 mM HEPES, 2.5 mM Na pyruvate, gentamicin (50 ug/ml), adjusted to pH 7.0 with NaOH. […] For in vitro transcription, PGEM HE (Liman et al., (1992) Neuron 9: 861-71) containing human HCN1 was linearized with NheI and transcribed with T7 RNA polymerase (Promega) in the presence of the cap analog m7G(5′)ppp(5′)G. The synthesized cRNA was precipitated with ammonium acetate and isopropanol, and resuspended in 50 μl nuclease-free water. cRNA was quantified using formaldehyde gels (1% agarose, 1×MOPS, 3% formaldehyde) against 1,2 and 5 μl RNA markers (Gibco BRL, 0.24-9.5 Kb).
# Oocytes were injected with 50 nl of human HCN1 RNA (1-10 ng). Control oocytes were injected with 50 nl of water. Oocytes were incubated for 2 days in ND-96 before analysis for expression of human HCN1. Incubations and collagenase digestion were carried out at room temperature. Injected oocytes were maintained in 48 well cell culture clusters (Costar; Cambridge, Mass.) at 18° C. Whole cell voltage-activated currents were measured 2 days after injection with a conventional two-electrode voltage clamp (GeneClamp500, Axon Instruments, Foster City, Calif.) using standard methods previously described and known in the art (Dascal et al., (1987) Pflugers Arch 409: 512-20). The microelectrodes, which had resistances of ˜1 MΩ, were filled with 3 M KCl. Cells were continuously perfused with ND96 at ˜10 ml/min at room temperature. Membrane voltage was clamped at −30 mV unless indicated.
# Oocytes were challenged with a series of hyperpolarizing voltage steps from a holding potential of −30 mV. Voltage steps (800 msec duration) to −40 through −180 mV in 20 mV intervals were applied to oocytes at a sampling rate of […]. Hyperpolarizing voltage steps activated an inward current having a threshold of about −60 mV. […] Cs^+ blocked HCN1 currents by 94, 92 and 90% when Ih was evoked by stepping to −80, −100 and −120 mV, respectively. […]
compound,measurement,setting,value
"[Cl-].[Cs+] [Cs^+, CsCl]",effect on endogenous oocyte inward currents,,no effect
same,block of HCN1 currents,Ih evoked by stepping to −80 mV,94%
same,block of HCN1 currents,Ih evoked by stepping to −100 mV,92%
same,block of HCN1 currents,Ih evoked by stepping to −120 mV,90%
